This is an account of results in paper PMC6131205, “Controlling the regioselectivity and stereospecificity of FAD-dependent polyamine oxidases with the use of amine-attached guide molecules as conformational modulators” (Bioscience Reports, 2018).

What is called Vmax is the rate approached at saturating substrate. One may read the kcat as the maximal rate divided by the concentration of active sites. Broadly, the Km is the concentration of substrate that gives half-maximal velocity. The Ki is the dissociation constant of the complex between target and ligand, obtained from inhibition or displacement.

For assay [1], the target named is T1, Fms1 (Saccharomyces cerevisiae, UniProt P50264). The assay can be described thus: Fms1 cleavage of 1 mM Spd supplemented with aldehydes (E1/E2 regioselectivity).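 Also: recombinant yeast Fms1 reactions in Glycine-NaOH buffer, with products Put and DAP quantified by HPLC using post-column o-phthalaldehyde derivatization.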 In kind it is biochemical, yeast. Also on record: made in house. The conditions noted are these: fixed 1 mM Spd, aldehyde 25-1000 μM, pH 9.0, 25°C.
Experimental: (§1) HPLC with post-column o-phthalaldehyde-derivatization was used to determine the concentrations of the reaction products Put and 1,3-diaminopropane (DAP) or butane-1,3-diamine respectively as described in [30]. Fms1 activity was determined essentially as described for human recombinant APAO, but reactions were carried out in 100 mM Glycine-NaOH buffer at pH 9.0 in a water bath at +25°C [29, 30].
Assay [2] concerns the target T1, Fms1. The assay can be described thus: Substrate kinetics with recombinant Fms1 (HPLC of reaction products).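 As to all read-outs here: recombinant polyamine oxidases incubated with substrate, product amines (putrescine, 1,3-diaminopropane or butane-1,3-diamine) quantified by HPLC after post-column o-phthalaldehyde derivatization.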 Conditions: for Vmax / kcat: Supplementary Table 1, pH 9.0, 100 mM Glycine-NaOH, 25°C, Put formation.
Experimental: as §1
The reactions were carried out in 1 triplicate at pH 9.0 in 100 mM Glycine-NaOH at +25°C.
values for N -Ac-MeSpd enantiomers were determined by using substrate concentrations of 25, 50,
for Rac-MeSpd 30 min, (R)-MeSpd 20 min and (S)-MeSpd 40 minutes.
The reactions were carried out in triplicate at pH 9.0 in 100 mM Glycine-NaOH at +25°C.
values for MeSpd enantiomers were determined by using substrate concentrations of 100, 300, 600,
1000, 2000 and 4000 M. Recombinant Fms1 was 3.8 g/reaction and the incubation time 60
incubated for 30 min (half of the reaction time of an ordinary sample). E1 cleavage was monitored
by HPLC by measuring Put formation and E2 cleavage by determining butane-1,3-diamine content.
The target in assay [3] is T2, human recombinant APAO (Homo sapiens, UniProt Q6QHF9).
T2 construct: made in house
Conditions: cited from earlier work.

Assay [4] deals with T2, human recombinant APAO. The assay can be described thus: Substrate kinetics with human recombinant APAO (HPLC of reaction products). In kind it is biochemical. Conditions: for Km / Vmax / kcat: 100 mM Glycine-NaOH pH 9.5, 5 mM DTT.
The target in a further assay is SMOX (Homo sapiens, UniProt Q9NWM0). Briefly: Inhibition of SMOX (Ki, peroxidase-coupled fluorescence, Spm as substrate).
Where [5] appears, read: Ki (best-fit value, noncompetitive inhibition), GraphPad Prism global fit, supplement.
Where [6] appears, read: Ki, non-competitive fit, 25, 50 or 100 µM Spm, pH 9.0, 37°C.

Structures are written as SMILES. Like-named read-outs stand apart in the source and are kept apart here.

Sequence of SMOX (Q9NWM0 whole entry): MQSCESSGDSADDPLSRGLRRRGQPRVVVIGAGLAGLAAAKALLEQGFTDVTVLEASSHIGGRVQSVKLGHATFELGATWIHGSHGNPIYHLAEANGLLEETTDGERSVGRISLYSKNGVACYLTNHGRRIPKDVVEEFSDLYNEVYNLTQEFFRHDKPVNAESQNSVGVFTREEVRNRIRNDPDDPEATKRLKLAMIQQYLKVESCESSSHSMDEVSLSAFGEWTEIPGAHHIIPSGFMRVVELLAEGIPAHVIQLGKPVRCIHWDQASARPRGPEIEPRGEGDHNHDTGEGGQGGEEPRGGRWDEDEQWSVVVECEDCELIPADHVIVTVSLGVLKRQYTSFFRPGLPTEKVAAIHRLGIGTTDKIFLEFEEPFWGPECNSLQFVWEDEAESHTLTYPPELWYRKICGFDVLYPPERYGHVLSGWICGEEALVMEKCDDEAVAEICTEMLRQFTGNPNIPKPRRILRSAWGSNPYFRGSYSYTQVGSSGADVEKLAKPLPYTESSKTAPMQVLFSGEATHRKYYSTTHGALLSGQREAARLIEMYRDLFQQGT
T1 sequence (P50264 whole entry): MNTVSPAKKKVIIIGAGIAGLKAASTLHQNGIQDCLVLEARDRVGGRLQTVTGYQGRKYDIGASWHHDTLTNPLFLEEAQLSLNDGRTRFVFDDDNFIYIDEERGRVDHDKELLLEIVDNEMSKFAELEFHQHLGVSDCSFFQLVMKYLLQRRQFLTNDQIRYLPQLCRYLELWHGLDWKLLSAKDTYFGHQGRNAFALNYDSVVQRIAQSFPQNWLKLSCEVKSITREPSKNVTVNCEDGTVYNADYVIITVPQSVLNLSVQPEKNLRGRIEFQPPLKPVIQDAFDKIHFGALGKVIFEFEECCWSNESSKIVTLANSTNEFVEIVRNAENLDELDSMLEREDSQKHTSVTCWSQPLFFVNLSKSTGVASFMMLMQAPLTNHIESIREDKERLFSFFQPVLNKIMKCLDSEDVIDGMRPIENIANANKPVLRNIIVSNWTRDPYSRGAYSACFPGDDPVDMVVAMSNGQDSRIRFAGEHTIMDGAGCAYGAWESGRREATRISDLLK
T2 sequence (Q6QHF9 whole entry): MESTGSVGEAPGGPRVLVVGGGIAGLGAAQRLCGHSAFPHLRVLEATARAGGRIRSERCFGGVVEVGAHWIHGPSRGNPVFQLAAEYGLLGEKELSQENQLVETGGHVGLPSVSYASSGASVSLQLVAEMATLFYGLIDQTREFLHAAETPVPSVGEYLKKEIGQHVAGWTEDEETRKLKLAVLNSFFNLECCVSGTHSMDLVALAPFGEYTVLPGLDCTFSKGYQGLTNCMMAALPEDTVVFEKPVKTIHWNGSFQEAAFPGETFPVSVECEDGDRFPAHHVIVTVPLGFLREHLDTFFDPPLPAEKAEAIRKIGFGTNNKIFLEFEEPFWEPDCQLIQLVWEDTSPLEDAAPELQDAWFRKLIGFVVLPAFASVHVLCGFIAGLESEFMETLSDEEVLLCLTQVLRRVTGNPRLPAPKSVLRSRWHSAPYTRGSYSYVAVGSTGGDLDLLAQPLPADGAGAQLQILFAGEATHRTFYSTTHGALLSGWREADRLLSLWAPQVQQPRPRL
Experimental for SMOX: Reaction mixtures contained 40 units/ml horseradish peroxidase (Roche), 1 mM homovanillic acid in 100 mM Glycine-NaOH at pH 9.0 supplemented with 40 ng of SMOX. […] Dilutions of fresh H2O2 were used as standard.

Regarding `O=Cc1cccnc1` [C00006], on Fms1 [1], the “E1 cleavage (Put) kcat” value is 5.5 ± 0.1 s⁻¹, the “E2 cleavage (DAP) kcat” value stood at 0.48 ± 0.01 s⁻¹ and the “Ratio of E1/E2” value is 8.0.
For the molecule `O=Cc1ccccn1` [C00007], at Fms1 [1], the “E1 cleavage (Put) kcat” value was 0.49 ± 0.01 s⁻¹, the “E2 cleavage (DAP) kcat” value came out at 0.49 ± 0.01 s⁻¹ and the “Ratio of E1/E2” value came to 2.2.
`Cc1ncc(CO)c(C=O)c1O` [C00008]: the “E1 cleavage (Put) kcat” value at Fms1 [1] came out at 1.13 ± 0.03 s⁻¹.
On to `COc1ccc(C=O)cc1` [C00009], for which, on Fms1 [1], the “E1 cleavage (Put) kcat” value is 0.13 ± 0.00 s⁻¹ and the “E2 cleavage (DAP) kcat” value stood at 0.22 ± 0.00 s⁻¹.
Consider `O=CC1CCCCC1` [C00010], for which, at Fms1 [1], the “E1 cleavage (Put) kcat” value was 1.41 ± 0.04 s⁻¹, the “E2 cleavage (DAP) kcat” value is 0.43 ± 0.01 s⁻¹ and the “Ratio of E1/E2” value was found to be 5.4.
Consider `O=Cc1ccccc1[N+](=O)[O-]` [C00011], for which, at Fms1 [1], the “E1 cleavage (Put) kcat” value amounted to 1.06 ± 0.04 s⁻¹ and the “E2 cleavage (DAP) kcat” value was determined as 0.03 ± 0.00 s⁻¹.
On to `O=Cc1ccc([N+](=O)[O-])cc1` [C00012], for which, on Fms1 [1], the “E1 cleavage (Put) kcat” value stood at 0.37 ± 0.00 s⁻¹, the “E2 cleavage (DAP) kcat” value turned out to be 0.05 ± 0.00 s⁻¹ and the “Ratio of E1/E2” value is 6.4.
As for `CC(=O)NC(C)CCNCCCCN` (stereo not shown) [N1-Ac-MeSpd, N8-Acetyl-1,8-diamino-5-azanonane], at Fms1 [2], the Vmax is given as 50 ± 3 nmol/min/mg and the kcat was 0.05 ± 0.00 s⁻¹.
`CC(=O)N[C@H](C)CCNCCCCN` [N^1-Ac-(R)-MeSpd]: on Fms1 [2], the Vmax is listed as 61 ± 4 nmol/min/mg and the kcat came to 0.06 ± 0.00 s⁻¹. Moreover, on human recombinant APAO [3], the Km is 95 µM and the kcat is 9 s⁻¹. Moreover, the “specificity constant ratio (R)-enantiomer/(S)-enantiomer” value at human recombinant APAO [4] (APAO, ratio of kcat/Km) was found to be 13.
Turning to `CC(=O)N[C@@H](C)CCNCCCCN` [N^1-Ac-(S)-MeSpd], on Fms1 [2], the Vmax was found to be 22 ± 1 nmol/min/mg and the kcat is 0.02 ± 0.00 s⁻¹. On human recombinant APAO [3], the Km was 170 µM and the kcat is 1.2 s⁻¹.
For the molecule `CC(=O)NCCCNCCCCN` [N^1-AcSpd, reference compound], on Fms1 [2], the catalytic constant (kcat) was found to be 65 ± 2 s⁻¹.
As for `C[C@H](CCNCCCCN)NC(=O)c1ccncc1` [P4-(R)-MeSpd], at SMOX (setting [5]), the Ki amounted to 1.28 mM. Besides, the Ki at SMOX (setting [6]) is 1.28 ± 0.111 mM. At human recombinant APAO [4], the Km came out at 3600 ± 600 nM, the Vmax was determined as 5.59 ± 0.60 µmol/min/mg and the kcat was found to be 5.2 ± 0.6 s⁻¹.
For `C[C@@H](CCNCCCCN)NC(=O)c1ccncc1` [P4-(S)-MeSpd], the Ki on SMOX (setting [5]) was determined as 1.02 mM. The molecule also showed a Ki on SMOX (setting [6]) of 1.02 ± 0.079 mM. On human recombinant APAO [4], the Km came to 800 ± 200 nM, the Vmax came to 0.02 ± 0.00 µmol/min/mg and the kcat worked out at 0.01 ± 0.00 s⁻¹.
For `NCCCCNCCCN` [Spd, spermidine, reference compound], the “Ratio of E1/E2” value at Fms1 [2] (substrate alone, no aldehyde, pH 9.0, 25°C) is reported as 7.5.
